In ChEMBL document CHEMBL1201862, “PubChem BioAssay data set” (2004):
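Tested at 5 concentrations; 48 h exposure; 96-well plates; endpoints linearly interpolated, else capped at highest concentration. GI50 marks 50% less growth.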 Calls of active or inactive are those of the source. Cut-off read from the data, not from the text of the source: active = GI50 up to about 1.1 µM and inactive = higher.

Key:
Assay in all cases: NCI-60 cell line screen, 48 h
OVCAR-8 = tested on: OVCAR-8
M14 = tested on: M14
CAKI-1 = tested on: CAKI-1
MDA-MB-435 = tested on: MDA-MB-435
SK-MEL-28 = tested on: SK-MEL-28
HCT-15 = tested on: HCT-15
COLO 205 = tested on: COLO 205
MDA-N = tested on: MDA-N
UACC-257 = tested on: UACC-257
IGROV-1 = tested on: IGROV-1
SK-MEL-2 = tested on: SK-MEL-2
OVCAR-4 = tested on: OVCAR-4
ACHN = tested on: ACHN
NCI-H460 = tested on: NCI-H460
UO-31 = tested on: UO-31
HCT-116 = tested on: HCT-116
RPMI-8226 = tested on: RPMI-8226
K562 = tested on: K562
UACC-62 = tested on: UACC-62
HOP-62 = tested on: HOP-62
SR = tested on: SR
SN12C = tested on: SN12C
PC-3 = tested on: PC-3
KM12 = tested on: KM12
SW-620 = tested on: SW-620
NCI-H226 = tested on: NCI-H226
NCI-H23 = tested on: NCI-H23
SK-OV-3 = tested on: SK-OV-3
U-251 = tested on: U-251
786-0 = tested on: 786-0
TK-10 = tested on: TK-10
SNB-19 = tested on: SNB-19
MDA-MB-231 = tested on: MDA-MB-231
SK-MEL-5 = tested on: SK-MEL-5
SF-268 = tested on: SF-268
Malme-3M = tested on: Malme-3M
DU-145 = tested on: DU-145
SF-539 = tested on: SF-539
LOX IMVI = tested on: LOX IMVI
HL-60 = tested on: HL-60
HT-29 = tested on: HT-29
MOLT-4 = tested on: MOLT-4
NCI/ADR-RES = tested on: NCI/ADR-RES
A549 = tested on: A549
NCI-H522 = tested on: NCI-H522
SNB-75 = tested on: SNB-75
OVCAR-5 = tested on: OVCAR-5
HOP-92 = tested on: HOP-92
Hs-578T = tested on: Hs-578T

Compound: O=C(OC1C(Oc2ccccc2COC(=O)C2(O)C=CCCC2=O)OC(CO)C(O)C1O)c1ccccc1 (centres undefined)
- GI50 (OVCAR-8): 36.7 µM (inactive)
- GI50 (M14): 35 µM (inactive)
- GI50 (CAKI-1): 4.11 µM (inactive)
- GI50 (MDA-MB-435): 27.5 µM (inactive)
- GI50 (SK-MEL-28): 68.4 µM (inactive)
- GI50 (HCT-15): 28.2 µM
- GI50 (COLO 205): 23.3 µM (inactive)
- GI50 (MDA-N): 27 µM (inactive)
- GI50 (UACC-257): 46.5 µM (inactive)
- GI50 (IGROV-1): 25.6 µM (inactive)
- GI50 (SK-MEL-2): 65.8 µM (inactive)
- GI50 (OVCAR-4): 41.2 µM (inactive)
- GI50 (ACHN): 34.2 µM (inactive)
- GI50 (NCI-H460): 22.3 µM (inactive)
- GI50 (UO-31): 26.5 µM (inactive)
- GI50 (HCT-116): 45.9 µM (inactive)
- GI50 (RPMI-8226): 13.5 µM (inactive)
- GI50 (K562): 34.4 µM (inactive)
- GI50 (UACC-62): 40.2 µM (inactive)
- GI50 (HOP-62): 42 µM (inactive)
- GI50 (SR): 19.4 µM (inactive)
- GI50 (SN12C): 25.9 µM (inactive)
- GI50 (PC-3): 28.4 µM (inactive)
- GI50 (KM12): 27.4 µM (inactive)
- GI50 (SW-620): 24.7 µM (inactive)
- GI50 (NCI-H226): 23.8 µM (inactive)
- GI50 (NCI-H23): 26.4 µM (inactive)
- GI50 (SK-OV-3): 33.9 µM (inactive)
- GI50 (U-251): 20.8 µM (inactive)
- GI50 (786-0): 25.3 µM (inactive)
- GI50 (TK-10): 31.3 µM (inactive)
- GI50 (SNB-19): 40.9 µM (inactive)
- GI50 (MDA-MB-231): 35.5 µM (inactive)
- GI50 (SK-MEL-5): 1.28 µM (inactive)
- GI50 (SF-268): 13.2 µM (inactive)
- GI50 (Malme-3M): 18 µM (inactive)
- GI50 (DU-145): 0.953 µM (active)
- GI50 (SF-539): 29.6 µM (inactive)
- GI50 (LOX IMVI): 23.6 µM (inactive)
- GI50 (HL-60): 23.6 µM (inactive)
- GI50 (HT-29): 60.4 µM (inactive)
- GI50 (MOLT-4): 6.03 µM (inactive)
- GI50 (NCI/ADR-RES): 34.8 µM (inactive)
- GI50 (A549): 7.05 µM (inactive)
- GI50 (NCI-H522): 17.7 µM (inactive)
- GI50 (SNB-75): 7.13 µM (inactive)
- GI50 (OVCAR-5): 91.2 µM (inactive)
- GI50 (HOP-92): 0.094 µM (active)
- GI50 (Hs-578T): 13.5 µM (inactive)
